Values of other authors, collected in publication PMC9099118 (Clinical and Translational Science, 2022).

Settings: Genuair multidose DPI, HVs; cited from earlier work

O=C(O[C@H]1C[N+]2(CCCOc3ccccc3)CCC1CC2)C(O)(c1cccs1)c1cccs1 [aclidinium bromide]
mean emitted lung dose: approximately 35%
